What was measured:
LecA [1] = target: T1, LecA (Pseudomonas aeruginosa, UniProt Q05097); settings: ref [5]–[8][32]; cited from earlier work
T1 construct: LecA was expressed and purified as previously described; made in house

[2] = Thermal Z→E isomerization tracked by UV–vis absorption (half-life of Z-isomers); format: physicochemical; settings: Tris buffer with 5% DMSO, pH 7.5, solvent not given; read-out: t1/2 (thermostability of Z-isomer) (converted)
From the text: The photoswitching properties of galactosyl azobenzenes 1–5 were realized in water or in Tris buffer containing 5 to 10% DMSO, in accordance with the biophysical evaluation conditions by using ITC. All these compounds undergo reversible photoisomerization under UV–vis irradiation in aqueous solution. […] After irradiation at 370 nm to induce the E-to-Z photoisomerization, the band at 353 nm decreases concomitantly to the appearance of two new bands at 312 and 438 nm (Figure 2, blue line). Two isosbestic points can also be observed at 310 and 429 nm. The back Z→E photoisomerization can be achieved by illumination at 485 nm (Figure 2, red line). ^1H NMR spectroscopy has been used to determine the Z/E ratios during irradiation, showing an excellent photoconversion yield of Z/E = 99:1 at PSS370, and E/Z = 87:13 at PSS485 in D2O/5% DMSO (Figure 3). […] All the photophysical properties of compounds 1–5 are summarized in Table 1 (spectra are shown in Figure S1–S24 in Supporting Information File 1). Concerning the meta-substituted azobenzene 2, a 30 nm blue shift is observed for the π→π* transition (λmax = 321 nm) as well as a lower absorption coefficient compared to the para-derivative 1 (Table 1, entries 3 and 4 vs entries 1 and 2), probably due to less-conjugated azobenzene. […]
The half-lif e o f Z -1 at roo m temperatur e wa s the n calculated: […]

[3] = Photostationary state composition (E/Z ratios) by 1H NMR and UV–vis after irradiation; format: physicochemical; settings: for Z/E PSS370: after 370 nm irradiation; for E/Z PSS485: after 485 nm irradiation; for E-isomer mixed with the Z-isomer as established by PSS370: Z-isomer samples used for ITC
Method: General experimental details. Commercially available solvents and reagents were used without further purification. Reactions carried out under anhydrous conditions are performed under argon in glassware previously dried in an oven. DMF and THF were previously dried through alumina or molecular sieves-containing cartridges using a solvent purificator MBRAUN SPS-800. All the reactions with azobenzene-containing substrates were carried out in the dark. Reactions were monitored by TLC on Silica Gel 60F-254 plates with detection by UV (254 nm or 365 nm) or by spraying with 10% H2SO4 in EtOH and heating about 30 s at 400–600 °C. Column chromatography purification was performed on CombiFlash® Rf+ and RediSep® RF or RF Gold normal phase silica columns (with UV detection at 254 and 350 nm for all azobenzene derivatives), or by flash column chromatography employing silica gel (60 Å pore size, 40–63 µm). ^1H and ^13C NMR spectra were recorded on a JEOL ECS-400 spectrometer or on Bruker Avance 300 and 400 spectrometers. Structural assignments were made with additional information from gCOSY, HMBC, and gHMQC experiments. High-resolution mass spectra (HRMS) were performed on a Bruker maXis mass spectrometer by the SALSA platform from ICOA laboratory or on an Agilent 1260 Infinity system with a quadrupole time-of-light (Q-TOF) mass analyzer. Melting points were measured with a Köfler bench previously calibrated using the usual standard references or on a digital melting point capillary apparatus. Specific optical rotations were measured in solution using sodium light at 589 nm where no absorption occurred for all compounds. Absorption spectra were recorded on a Cary-5000 spectrophotometer from Agilent Technologies. Photochromic reactions were induced in situ by a continuous irradiation Hg/Xe lamp (Hamamatsu, LC6- or LC8-Lightningcure, 200 W) equipped with narrow band interference filters of appropriate wavelengths: Semrock BP-370/36 for λirr = 370 nm, Semrock FF01-438/24-25 for λirr = 438 nm, Semrock FF01-485/20-25 for λirr = 485 nm. The irradiation power was measured using a photodiode from Ophir (PD300-UV) and corrected after a measurement with an additional Schott long pass filter (LP-545) to measure NIR contribution (PLP) that is let through the Semrock filter (PTotal), considering a 90% transmittance: Pλirr = PTotal − (10/9 × PLP). The photoconversion reaction was followed by a combination of ^1H NMR and UV–vis absorption spectra, realized by successive irradiations at 370 nm (438 or 485 nm). The E/Z ratios were determined by integration of the azobenzene proton signals of each isomer. A quartz cell of 10 mm path length has been used for solution measurement.
The photoconversion yields were measured from a solution of the compounds in deuterated solvent and monitored by ^1H NMR and UV–vis absorption, after successive irradiations at 370 nm (438 nm or 485 nm) in the case of the PSS. The E/Z ratios were determined by integration of characteristic of each isomer.

LecA [4] = target: T1, LecA; assay: Isothermal titration calorimetry (ITC) of ligand binding to LecA; settings: ITC Kd, E-isomer the better binder
From the text: The interaction of compounds 1–5 with LecA was characterized by ITC analysis for both the E- and Z-isomers. As the initial isomer state of the galactosyl azobenzenes is the E-form, ITC measurements made on E-isomers correspond to 100% purity of them. After 370 nm irradiation to induce the photoizomerisation process, a photostationary state is reached between E- and Z-isomers. For ITC measurements made on Z-isomers, the percentage of isomers is shown in the column Z/E (PSS370) of Table 1. Depending on the corresponding galactosyl azobenzenes, the Z-isomer is pure from 87 to 99%. Spectroscopy measurements were performed on ligand solution just before each experiment to check the efficiency of the isomerization, with results as indicated in Table 2.
Isothermal titration calorimetry: LecA was expressed and purified as previously described. All experiments were performed at 25 °C with an ITC200 isothermal titration calorimeter (Microcal-Malvern Panalytical, Grenoble, France). The lyophilized LecA protein was dissolved in a buffer composed of 20 mM Tris^.HCl (pH 7.5), 100 mM NaCl and 100 μM CaCl2 with 5% or 10% DMSO final. All compounds were first dissolved in DMSO then in same buffer for a final concentration of 5% or 10% DMSO. […]

[5] = Fatigue resistance under alternated UV/vis irradiation cycles; format: physicochemical; settings: alternated UV (370 nm) and visible irradiation cycles, aqueous media
From the text: Figure 2 (Left) Absorption spectra and (right) fatigue resistance of 1 under alternated 370/485 nm irradiations in Tris buffer/DMSO 95:5 at rt: E-1 (black line), PSS370 (blue line), PSS485 (red line). Irradiation conditions at 370 nm: 12.8 mW·cm^−2, 20 s; at 485 nm: 1.5 mW·cm^−2, 480 s.
General procedure for the fatigue resistance measurements
Starting from a solution of compound containing 100% of the E-isomer, the solution was irradiated sequentially at 370 nm and at 485 nm or 438 nm. The absorbance was measured before and after each illumination realized with constant optical length distance. The sequence, which constitutes a cycle, was repeated for a minimum of 10 times.
Fatigue resistance of the compound 2
Figure S15: Left: absorption spectra of E-2 (black line), PSS370 (blue line), PSS438 (red line) in Tris buffer/ DMSO (9/1); Right: Fatigue resistance followed by the absorption band at 3 21 nm under alternate 3 70 nm/438 nm irradiation cycles in Tris buffer/DMSO (9/1). Irradiation conditions: 40 s at P 370 = 14.1 mW cm-2 and 180 s at P 438 […]
Fatigue resistance of the compound 3
Figure S16: Left: absorption spectra of E-3 (black line), PSS 370 (blue line), PSS 485 (red line) in Tris buffer/DMSO (9/1); Right: Fatigue resistance followed by the absorption band at 3 64 nm under alternate 3 70 nm/485 nm irradiation cycles in Tris buffer/DMSO (9/1). […]

T1 sequence (Q05097 whole entry): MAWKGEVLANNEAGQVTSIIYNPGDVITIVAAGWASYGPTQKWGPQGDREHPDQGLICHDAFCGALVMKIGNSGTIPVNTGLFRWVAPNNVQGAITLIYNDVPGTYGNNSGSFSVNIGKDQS

SMILES | Z/E PSS370 ([3]; Tris/DMSO 10%) | E-isomer mixed with the Z-isomer as established by PSS370 [3] | E/Z PSS485 ([3]; Tris/DMSO 10%) | Z/E PSS370 ([3]; Tris/DMSO 5%) | E/Z PSS485 ([3]; Tris/DMSO 5%) | difference in affinity between E- and Z-isomers (LecA [4]) | Z/E PSS370 ([3]; H2O) | E/Z PSS485 ([3]; H2O) | also measured
O=C[C@H](O)[C@@H](O)[C@@H](O)[C@H](O)CO [ᴅ-galactose] | – | – | – | – | – | – | – | – | Kd (LecA [1]): 34 µM
NCCOc1cccc(/N=N/c2cccc(O[C@@H]3O[C@H](CO)[C@H](O)[C@H](O)[C@H]3O)c2)c1 [compound 2] | 87/13 | 13% | – | 87/13 | 71/29 | – | – | – | half-life [2]: 29 days; E/Z PSS438 ([3]; Tris/DMSO 10%, after 438 nm irradiation (footnote d)): 74/26^d
NCCOc1ccc(/N=N/c2ccc(S[C@@H]3O[C@H](CO)[C@H](O)[C@H](O)[C@H]3O)cc2)cc1 [compound 3] | 99/1 | – | 71/29 | – | – | 2 fold | 99/1 | 73/27 | –
NCCOc1ccc(/N=N/c2ccc(O[C@@H]3O[C@H](CO)[C@H](O)[C@H](O)[C@H]3O)cc2)cc1 [compound 1] | – | – | – | 99/1 | 87/13 | 3 fold | 99/1 | 87/13 | fatigue resistance [5]: no degradation has been observed after more than 10 UV–vis irradiation cycles

More lines, main results first:

Z/E PSS370 ([3]; Tris/DMSO 10%) | E-isomer mixed with the Z-isomer as established by PSS370 [3] | E/Z PSS485 ([3]; Tris/DMSO 10%) | SMILES | Z/E PSS370 ([3]; Tris/DMSO 5%) | E/Z PSS485 ([3]; Tris/DMSO 5%) | difference in affinity between E- and Z-isomers (LecA [4]) | Z/E PSS370 ([3]; H2O) | E/Z PSS485 ([3]; H2O) | also measured
92/8 | 8% | 60/40 | NCCOc1ccc(/N=N/c2ccccc2S[C@@H]2O[C@H](CO)[C@H](O)[C@H](O)[C@H]2O)cc1 [compound 5] | – | – | – | – | – | –
99/1 | – | 72/28 | NCCOc1ccc(/N=N/c2cccc(S[C@@H]3O[C@H](CO)[C@H](O)[C@H](O)[C@H]3O)c2)cc1 [compound 4] | – | – | – | – | – | –
